Our source for the IC50 values is patent US11208400B2, “Substituted 6-(1H-pyrazol-1-yl)pyrimidin-4-amine derivatives and uses thereof” (Bayer Aktiengesellschaft, priority 2016, dated 2021).

Molecules are shown by their SMILES.

The assay deals with T1, human Npt2a (Homo sapiens, UniProt Q06495).
T1 construct: expressed in transfected cells
T1 sequence (Q06495 1-639): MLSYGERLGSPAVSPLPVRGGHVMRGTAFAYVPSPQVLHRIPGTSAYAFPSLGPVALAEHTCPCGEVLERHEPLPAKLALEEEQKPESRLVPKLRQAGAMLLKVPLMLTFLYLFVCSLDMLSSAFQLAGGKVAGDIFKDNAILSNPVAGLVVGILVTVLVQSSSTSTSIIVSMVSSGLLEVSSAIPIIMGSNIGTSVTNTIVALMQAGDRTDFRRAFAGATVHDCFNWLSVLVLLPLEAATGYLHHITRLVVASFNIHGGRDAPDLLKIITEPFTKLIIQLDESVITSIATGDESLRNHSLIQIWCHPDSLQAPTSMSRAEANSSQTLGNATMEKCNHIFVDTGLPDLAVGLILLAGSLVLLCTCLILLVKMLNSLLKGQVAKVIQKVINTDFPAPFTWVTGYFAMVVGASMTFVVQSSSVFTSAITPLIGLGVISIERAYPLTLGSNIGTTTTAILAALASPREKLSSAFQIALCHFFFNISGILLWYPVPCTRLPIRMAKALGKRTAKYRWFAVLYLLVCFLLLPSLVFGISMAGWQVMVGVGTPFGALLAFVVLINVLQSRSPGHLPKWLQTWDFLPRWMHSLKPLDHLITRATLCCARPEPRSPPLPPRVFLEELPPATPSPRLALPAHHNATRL
The assay is described as follows: Npt2a activity cell based assay, membrane potential dye, CHO T-REx hNpt2a cells. The following applies: doxycycline-induced, depolarization by sodium phosphate influx, average or median values if tested more than once. The procedure, abridged:
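Doxycycline-induced (0.5 μg/mL, 24 h) CHO T-REx cells were loaded with membrane potential dye in sodium-free NHE buffer (pH 7.4) and exposed to compound (50 μM–1 nM, 5 min, room temperature).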
The IC50 is the concentration needed to halve the response being measured. Compound `COc1c(-c2ccc(F)cc2)nn(CC2CC2)c1Nc1cc(-n2nc(C)c(-c3nnc(C)o3)c2C)ncn1` [Example 450, N-[1-(cyclopropylmethyl)-3-(4-fluorophenyl)-4-methoxy-1H-pyrazol-5-yl]-6-[3,5-dimethyl-4-(5-methyl-1,3,4-oxadiazol-2-yl)-1H-pyrazol-1-yl]pyrimidin-4-amine] came in with an IC50 of 0.66 µM.
The same measure for `CCc1c(Nc2cc(-n3nc(C)c(CC(=O)OC(C)C)c3C)ncn2)nn(C)c1-c1ccc(F)cc1` [Example 440, propan-2-yl [1-(6-{[4-ethyl-5-(4-fluorophenyl)-1-methyl-1H-pyrazol-3-yl]amino}pyrimidin-4-yl)-3,5-dimethyl-1H-pyrazol-4-yl]acetate]: 0.097 µM; for `Cc1nn(-c2cc(Nc3[nH]nc(-c4ccc(F)cc4F)c3Cl)ncn2)c(C)c1Cl` [Example 3, N-[4-chloro-3-(2,4-difluorophenyl)-1H-pyrazol-5-yl]-6-(4-chloro-3,5-dimethyl-1H-pyrazol-1-yl)pyrimidin-4-amine]: 0.013 µM; for `Cc1nn(-c2cc(Nc3c(C)c(-c4ccc(C#N)cc4)nn3CC3CC3)ncn2)c(C)c1C(F)(F)F` [Example 373, 4-[1-(cyclopropylmethyl)-5-({6-[3,5-dimethyl-4-(trifluoromethyl)-1H-pyrazol-1-yl]pyrimidin-4-yl}amino)-4-methyl-1H-pyrazol-3-yl]benzonitrile]: 0.005 µM.
The same measure for `Cc1nn(-c2cc(Nc3c(C)c(-c4ccc(C(F)F)nc4)nn3C)ncn2)c(C)c1Cl` [Example 474, 6-(4-chloro-3,5-dimethyl-1H-pyrazol-1-yl)-N-{3-[6-(difluoromethyl)pyridin-3-yl]-1,4-dimethyl-1H-pyrazol-5-yl}pyrimidin-4-amine]: 0.234 µM.
Then `Cc1cc(C(F)F)n(-c2cc(Nc3c(C)c(-c4ccc(C#N)cc4)nn3C)ncn2)n1` [Example 240, 4-[5-({6-[5-(difluoromethyl)-3-methyl-1H-pyrazol-1-yl]pyrimidin-4-yl}amino)-1,4-dimethyl-1H-pyrazol-3-yl]benzonitrile], with 0.018 µM; and `CCOC(=O)c1c(C)nn(-c2cc(Nc3c(C)nn(-c4ccc(F)cc4)c3C)ncn2)c1C` [Example 453, ethyl 1-(6-{[1-(4-fluorophenyl)-3,5-dimethyl-1H-pyrazol-4-yl]amino}pyrimidin-4-yl)-3,5-dimethyl-1H-pyrazole-4-carboxylate], with 0.018 µM; and `Cc1nn(-c2cc(Nc3c(C)c(-c4ccc(F)cc4)nn3CC3CC3)ncn2)c(C)c1CN1CC(F)C1` [Example 452, N-[1-(cyclopropylmethyl)-3-(4-fluorophenyl)-4-methyl-1H-pyrazol-5-yl]-6-{4-[(3-fluoroazetidin-1-yl)methyl]-3,5-dimethyl-1H-pyrazol-1-yl}pyrimidin-4-amine], with 0.016 µM.
With `Cc1nn(-c2cc(Nc3c(Cl)c(-c4ccc(F)cc4)nn3C)ncn2)c(C(C)(C)O)c1Cl` [Example 278, 2-[4-chloro-1-(6-{[4-chloro-3-(4-fluorophenyl)-1-methyl-1H-pyrazol-5-yl]amino}pyrimidin-4-yl)-3-methyl-1H-pyrazol-5-yl]propan-2-ol], it took 0.086 µM to reach half-maximal inhibition (IC50).
For `CCc1c(-c2ccc(F)cc2)nn(C)c1Nc1cc(-n2nc(C)c3cnccc32)ncn1` [Example 230, N-[4-ethyl-3-(4-fluorophenyl)-1-methyl-1H-pyrazol-5-yl]-6-(3-methyl-1H-pyrazolo[4,3-c]pyridin-1-yl)pyrimidin-4-amine], the half-inhibitory concentration (IC50) was 0.83 µM.
Take `CCc1c(-c2ccc(F)cc2)nn(CC2CCC2)c1Nc1cc(-n2nc(C)cc2C)ncn1` [Example 182, N-[1-(cyclobutylmethyl)-4-ethyl-3-(4-fluorophenyl)-1H-pyrazol-5-yl]-6-(3,5-dimethyl-1H-pyrazol-1-yl)pyrimidin-4-amine]: the IC50 worked out at 0.106 µM.
The same measure for `CCc1c(-c2ccc(F)cc2)nn(C)c1Nc1cc(-n2nc(C)c3ncccc32)ncn1` [Example 229, N-[4-ethyl-3-(4-fluorophenyl)-1-methyl-1H-pyrazol-5-yl]-6-(3-methyl-1H-pyrazolo[4,3-b]pyridin-1-yl)pyrimidin-4-amine]: 0.35 µM; for `Cc1cc(C)n(-c2cc(Nc3nn(CCC4CC4)c(-c4ccc(C#N)cc4)c3C)ncn2)n1` [Example 212, 4-[1-(2-cyclopropylethyl)-3-{[6-(3,5-dimethyl-1H-pyrazol-1-yl)pyrimidin-4-yl]amino}-4-methyl-1H-pyrazol-5-yl]benzonitrile]: 1.17 µM.
In turn, `Cc1cc(C(F)F)n(-c2cc(Nc3c(C)c(-c4ccc(Cl)cc4)nn3CC3CC3)ncn2)n1` [Example 313, N-[3-(4-chlorophenyl)-1-(cyclopropylmethyl)-4-methyl-1H-pyrazol-5-yl]-6-[5-(difluoromethyl)-3-methyl-1H-pyrazol-1-yl]pyrimidin-4-amine] gave a 50% inhibitory concentration (IC50) of 0.036 µM.
Take `Cc1nn(-c2cc(Nc3c(C)c(-c4ccc(C#N)cc4)nn3C)ncn2)c(C)c1C(O)C(F)(F)F` (racemic) [Example 387, (±)-4-{5-[(6-{3,5-dimethyl-4-[2,2,2-trifluoro-1-hydroxyethyl]-1H-pyrazol-1-yl}pyrimidin-4-yl)amino]-1,4-dimethyl-1H-pyrazol-3-yl}benzonitrile]: the half-maximal inhibitory concentration (IC50) came out at 0.07 µM.
The same measure for `Cc1cc(C)n(-c2cc(Nc3c(Cl)c(-c4ccc(F)cc4)nn3CC(F)F)ncn2)n1` [Example 129, N-[4-chloro-1-(2,2-difluoroethyl)-3-(4-fluorophenyl)-1H-pyrazol-5-yl]-6-(3,5-dimethyl-1H-pyrazol-1-yl)pyrimidin-4-amine]: 0.078 µM.
For `COC(C)c1c(C)nn(-c2cc(Nc3c(C)c(-c4ccc(F)cc4)nn3CC3CC3)ncn2)c1C` (single isomer, unassigned) [Example 327, N-[1-(cyclopropylmethyl)-3-(4-fluorophenyl)-4-methyl-1H-pyrazol-5-yl]-6-{4-[1-methoxyethyl]-3,5-dimethyl-1H-pyrazol-1-yl}pyrimidin-4-amine], the IC50 is 0.004 µM.
Then `CCOC(=O)c1c(C)nn(-c2cc(Nc3c(CC)c(-c4ccc(F)cc4)nn3C)ncn2)c1C` [Example 155, ethyl 1-(6-{[4-ethyl-3-(4-fluorophenyl)-1-methyl-1H-pyrazol-5-yl]amino}pyrimidin-4-yl)-3,5-dimethyl-1H-pyrazole-4-carboxylate], with 0.009 µM; and `Cc1cc(C)n(-c2cc(Nc3c(C)c(-c4ccc(F)cn4)nn3CC3CC3)ncn2)n1` [Example 421, N-[1-(cyclopropylmethyl)-3-(5-fluoropyridin-2-yl)-4-methyl-1H-pyrazol-5-yl]-6-(3,5-dimethyl-1H-pyrazol-1-yl)pyrimidin-4-amine], with 0.41 µM; and `Cc1nn(-c2cc(Nc3c(C4CC4)c(-c4ccc(F)cc4)nn3C)ncn2)c2ccccc12` [Example 47, N-[4-cyclopropyl-3-(4-fluorophenyl)-1-methyl-1H-pyrazol-5-yl]-6-(3-methyl-1H-indazol-1-yl)pyrimidin-4-amine], with 0.089 µM.
Then `Cc1nn(-c2cc(Nc3c(C)c(-c4ccc(OC(F)F)cc4)nn3CC3CC3)ncn2)c(C)c1C#N` [Example 477, 1-[6-({1-(cyclopropylmethyl)-3-[4-(difluoromethoxy)phenyl]-4-methyl-1H-pyrazol-5-yl}amino)pyrimidin-4-yl]-3,5-dimethyl-1H-pyrazole-4-carbonitrile], with 0.098 µM; and `CCc1c(-c2ccc(F)cc2)nn(Cc2nnn(C)n2)c1Nc1cc(-n2nc(C)cc2C)ncn1` [Example 388, 6-(3,5-dimethyl-1H-pyrazol-1-yl)-N-{4-ethyl-3-(4-fluorophenyl)-1-[(2-methyl-2H-tetrazol-5-yl)methyl]-1H-pyrazol-5-yl}pyrimidin-4-amine], with 0.064 µM.
The same measure for `Cc1nn(-c2cc(Nc3c(C)c(-c4ccc(C(F)F)nc4)nn3CC3CC3)ncn2)c(C)c1C#N` [Example 512, 1-[6-({1-(cyclopropylmethyl)-3-[6-(difluoromethyl)pyridin-3-yl]-4-methyl-1H-pyrazol-5-yl}amino)pyrimidin-4-yl]-3,5-dimethyl-1H-pyrazole-4-carbonitrile]: 1.4 µM; for `Cc1nn(-c2cc(Nc3nn(C)c(-c4ccc(C#N)cc4)c3C)ncn2)c(C)c1Cl` [Example 196, 4-(3-{[6-(4-chloro-3,5-dimethyl-1H-pyrazol-1-yl)pyrimidin-4-yl]amino}-1,4-dimethyl-1H-pyrazol-5-yl)benzonitrile]: 0.002 µM; for `Cc1nn(-c2cc(Nc3nn(C)c(-c4ccc(F)cn4)c3C)ncn2)c(C)c1Cl` [Example 479, 6-(4-chloro-3,5-dimethyl-1H-pyrazol-1-yl)-N-[5-(5-fluoropyridin-2-yl)-1,4-dimethyl-1H-pyrazol-3-yl]pyrimidin-4-amine]: 0.018 µM.
On to `CCc1c(Nc2cc(-n3nc(C)c(C(=O)N4CC(C)OC(C)C4)c3C)ncn2)nn(C)c1-c1ccc(F)cc1` (racemic) [Example 74, (±)-[syn-2,6-dimethylmorpholin-4-yl][1-(6-{[4-ethyl-5-(4-fluorophenyl)-1-methyl-1H-pyrazol-3-yl]amino}pyrimidin-4-yl)-3,5-dimethyl-1H-pyrazol-4-yl]methanone], for which the half-inhibitory concentration (IC50) turned out to be 1.26 µM.
